Drawing on BigSolDB 2.1, this text covers solubility (mole fraction) for two compounds.

In general, solubility (mole fraction) refers to the moles of solute divided by all moles in the saturated solution.

The conditions of this data set: in DMF.

For `Clc1ccc(-c2c3nc(c(-c4ccc(Cl)cc4)c4ccc([nH]4)c(-c4ccc(Cl)cc4)c4nc(c(-c5ccc(Cl)cc5)c5ccc2[nH]5)C=C4)C=C3)cc1`, the solubility (mole fraction) is, setting by setting: (303.2 K) 2.64e-05; (313.2 K) 3.51e-05; (323.2 K) 4.56e-05; (333.2 K) 6.16e-05; (343.2 K) 8.67e-05; (353.2 K) 0.000122.
In the case of `C1=Cc2nc1c(-c1ccccc1)c1ccc([nH]1)c(-c1ccccc1)c1nc(c(-c3ccccc3)c3ccc([nH]3)c2-c2ccccc2)C=C1`, the solubility (mole fraction) reads like this: (303.2 K) 9.76e-05; (313.2 K) 0.000107; (323.2 K) 0.00012; (333.2 K) 0.000136; (343.2 K) 0.000166.
